Like-named read-outs stand apart in the source and are kept apart here. Where a SMILES comes first, the peptide text is derived from it. [ ]: non-standard residue; d: D form. The star is where a group is joined. Dmt = Cc1cc(O)cc(C)c1C[C@H](N)C(=O)O; Tic = O=C(O)[C@@H]1Cc2ccccc2CN1; NHBn = c1ccc(CN*)cc1
Legend:
μ-opioid receptors = μ-opioid receptors (Rattus norvegicus, UniProt P33535); assay: Competitive binding assay, μ-opioid receptors, [3H]DAMGO; set-up: species or system Sprague-Dawley rats
δ-opioid receptor [1] = biological target: T1, δ-opioid receptor (Mus musculus, UniProt P32300); assay: Electrically stimulated mouse vas deferens; type: cell-based
μ-opioid receptor [2] = biological target: T2, μ-opioid receptor (Cavia porcellus, UniProt P97266); assay: Electrically stimulated guinea-pig ileum; type: cell-based, guinea pigs
δ-opioid receptors [3] = biological target: T3, δ-opioid receptors (Rattus norvegicus, UniProt P33533); assay: Competitive binding assay, δ-opioid receptors, [3H]deltorphin II; set-up: species or system Sprague-Dawley rats; settings: for selectivity Ki^μ/Ki^δ: ratio of binding Ki values
μ-opioid receptor [4] = biological target: T2, μ-opioid receptor; settings: μ antagonism, cited from earlier work
δ-opioid receptor [5] = biological target: T1, δ-opioid receptor; settings: δ antagonism, cited from earlier work
δ-opioid receptors [6] = biological target: T3, δ-opioid receptors; settings: ref Balboni et al.[14]; cited from earlier work
[7] = about 2 units lower than Tyr; cited from earlier work
δ opioid receptor = settings: read-out: δ agonist IC50; cited from earlier work

T2 sequence (P97266 whole entry, looked up): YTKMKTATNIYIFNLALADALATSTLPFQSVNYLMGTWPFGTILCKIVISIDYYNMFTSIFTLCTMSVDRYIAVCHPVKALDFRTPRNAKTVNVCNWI
μ-opioid receptors, sequence (P33535 whole entry): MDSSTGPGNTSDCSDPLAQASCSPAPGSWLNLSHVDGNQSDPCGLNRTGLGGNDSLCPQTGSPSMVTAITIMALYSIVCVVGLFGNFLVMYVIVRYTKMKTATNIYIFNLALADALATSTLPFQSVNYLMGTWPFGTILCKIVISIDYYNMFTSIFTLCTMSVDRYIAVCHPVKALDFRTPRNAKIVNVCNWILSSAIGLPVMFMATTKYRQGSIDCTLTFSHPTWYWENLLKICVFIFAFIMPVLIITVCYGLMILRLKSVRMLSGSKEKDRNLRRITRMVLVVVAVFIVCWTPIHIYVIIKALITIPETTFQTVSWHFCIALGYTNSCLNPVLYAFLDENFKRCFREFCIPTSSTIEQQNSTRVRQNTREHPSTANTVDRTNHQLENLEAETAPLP
T3 sequence (P33533 whole entry): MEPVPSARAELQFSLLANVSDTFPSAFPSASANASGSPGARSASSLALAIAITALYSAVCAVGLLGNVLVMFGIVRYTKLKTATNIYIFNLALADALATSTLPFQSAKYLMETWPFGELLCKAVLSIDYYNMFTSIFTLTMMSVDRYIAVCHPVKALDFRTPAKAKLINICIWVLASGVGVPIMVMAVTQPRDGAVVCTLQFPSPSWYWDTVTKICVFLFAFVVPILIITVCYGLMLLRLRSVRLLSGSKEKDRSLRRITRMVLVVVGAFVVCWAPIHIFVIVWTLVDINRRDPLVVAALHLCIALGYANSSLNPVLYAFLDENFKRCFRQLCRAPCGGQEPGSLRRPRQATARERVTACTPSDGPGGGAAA
T1 sequence (P32300 whole entry): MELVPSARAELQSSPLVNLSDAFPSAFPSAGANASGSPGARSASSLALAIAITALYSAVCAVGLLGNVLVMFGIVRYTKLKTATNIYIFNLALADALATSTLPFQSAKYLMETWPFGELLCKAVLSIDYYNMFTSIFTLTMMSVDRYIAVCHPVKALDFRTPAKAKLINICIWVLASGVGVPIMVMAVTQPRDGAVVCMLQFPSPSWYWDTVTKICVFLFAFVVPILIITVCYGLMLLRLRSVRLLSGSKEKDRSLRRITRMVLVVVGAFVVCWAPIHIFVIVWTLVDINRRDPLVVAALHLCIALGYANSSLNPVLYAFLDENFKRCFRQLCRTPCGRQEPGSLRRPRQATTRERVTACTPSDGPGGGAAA

CC(C)[C@H](NC(=O)[C@H](CCC(=O)O)NC(=O)[C@H](Cc1ccccc1)NC(=O)[C@@H](C)NC(=O)[C@@H](N)Cc1c(F)cc(O)cc1F)C(=O)N[C@H](C(=O)NCC(N)=O)C(C)C [Compound 8, [Dft^1]Deltorphin B]
Ki (μ-opioid receptors): 154 ± 19 nM
IC50 (δ-opioid receptor [1]): 0.4 ± 0.08 nM
IC50 (μ-opioid receptor [2]): 3560 ± 566 nM
Ki (δ-opioid receptors [3]): 0.241 ± 0.03 nM
selectivity Ki^μ/Ki^δ (δ-opioid receptors [3]): 640

CC(C)[C@H](NC(=O)[C@H](CCC(=O)O)NC(=O)[C@H](Cc1ccccc1)NC(=O)[C@@H](C)NC(=O)[C@@H](N)Cc1ccc(O)cc1)C(=O)N[C@H](C(=O)NCC(N)=O)C(C)C [Compound 9, H-Tyr-D-Ala-Phe-Glu-Val-Val-Gly-NH2, reference compound]
IC50 (μ-opioid receptor [2]): > 10000 nM

Cc1cc(O)cc(C)c1C[C@H](N)C(=O)N1Cc2ccccc2C[C@H]1C(=O)N[C@@H](CCCCN)C(=O)NCc1ccccc1 [Compound 10, H-Dmt-Tic-Lys-NH-Bzl] (H-[Dmt]-[Tic]-Lys-NHBn)
functional bioactivity GPI pA2 (μ-opioid receptor [4]; ref Balboni et al.[14]): 7.96
functional bioactivity MVD pA2 (δ-opioid receptor [5]; ref Balboni et al.[14]): 6.01
selectivity Ki^μ/Ki^δ (δ-opioid receptors [6]): 8

NCCCC[C@H](NC(=O)[C@@H]1Cc2ccccc2CN1C(=O)[C@@H](N)Cc1c(F)cc(O)cc1F)C(=O)NCc1ccccc1 [Compound 11, H-Dft-Tic-Lys-NH-Bzl]
Ki (μ-opioid receptors): 1030 ± 83 nM
Ki (δ-opioid receptors [3]): 153 ± 21 nM
selectivity Ki^μ/Ki^δ (δ-opioid receptors [3]): 7

NCCCC[C@H](NC(=O)[C@@H]1Cc2ccccc2CN1C(=O)[C@@H](N)Cc1ccc(O)cc1)C(=O)NCc1ccccc1 [Compound 12, H-Tyr-Tic-Lys-NH-Bzl] (H-Tyr-[Tic]-Lys-NHBn)
Ki (μ-opioid receptors): 1650 ± 231 nM
Ki (δ-opioid receptors [3]): 63.9 ± 7.6 nM
selectivity Ki^μ/Ki^δ (δ-opioid receptors [3]): 26

Cc1cc(O)cc(C)c1C[C@@H](C(=O)N1Cc2ccccc2C[C@H]1C(=O)O)N(C)C [Compound 13, N,N(Me)2-Dmt-Tic-OH]
functional bioactivity GPI pA2 (μ-opioid receptor [4]; ref Salvadori et al.[15]): 5.8
functional bioactivity MVD pA2 (δ-opioid receptor [5]; ref Salvadori et al.[15]): 9.4

Cc1cc(O)cc(C)c1C[C@@H](C(=O)N1Cc2ccccc2C[C@H]1C(N)=O)N(C)C [Compound 16, N,N(Me)2-Dmt-Tic-NH2]
functional bioactivity GPI pA2 (μ-opioid receptor [4]; ref Salvadori et al.[15]): 6.3
functional bioactivity MVD pA2 (δ-opioid receptor [5]; ref Salvadori et al.[15]): 9.9

N[C@@H](Cc1c(F)cc(O)cc1F)C(=O)O [Dft, 2′,6′-difluoro-L-tyrosine]
pKa [7]: 8.1

H-Bcp-Tic-Phe-Phe-OH
IC50 (δ opioid receptor): 3.42 nM
